Reference: publication PMC10460039 (Molecules, 2023)
Like-named read-outs stand apart in the source and are kept apart here. One block for each molecule: values may come before it.

What was measured:
[1] = molecular target: T1, tyrosinase (Agaricus bisporus, UniProt C7FF04); assay: Tyrosinase inhibitory activity using L-DOPA as substrate; assay type: biochemical, mushroom; conditions: read-out: Inhibition Rate at 64 μM (%)
Method: Compounds c1~c29 were tested for their tyrosinase inhibitory activities according to previous reports. Each compound was dissolved in DMSO and diluted to different concentrations. Tyrosinase and L-DOPA were dissolved in PBS solution (50 mM, pH 6.8). To 140 μL of tyrosinase (final concentration: 66.7 U/mL) solution, 10 μL of compound was added and incubated for 5 min at 25 °C, followed by the addition of 50 µL of L-DOPA (final concentration: 2 mM). Then, absorbance of the mixture was read at 475 nm. The inhibitory activity of each compound was calculated using DMSO as a blank control.
Target sequence in this assay (C7FF04 2-392): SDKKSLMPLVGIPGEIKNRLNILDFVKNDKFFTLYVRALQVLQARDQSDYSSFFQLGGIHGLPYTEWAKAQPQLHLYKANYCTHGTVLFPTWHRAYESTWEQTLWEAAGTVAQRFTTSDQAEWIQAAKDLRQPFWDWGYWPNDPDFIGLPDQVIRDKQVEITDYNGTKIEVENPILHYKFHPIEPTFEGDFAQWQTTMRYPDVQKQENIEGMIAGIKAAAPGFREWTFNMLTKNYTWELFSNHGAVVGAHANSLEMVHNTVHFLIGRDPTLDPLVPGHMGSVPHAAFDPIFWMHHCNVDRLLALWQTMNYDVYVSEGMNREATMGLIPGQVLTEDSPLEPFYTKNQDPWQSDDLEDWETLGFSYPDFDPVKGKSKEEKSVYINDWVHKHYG

[2] = molecular target: T1, tyrosinase; assay: Inhibition kinetic study (enzyme and substrate kinetics, Lineweaver–Burk); assay type: biochemical, mushroom; conditions: c27 0~4 μM
Method: The kinetics studies were carried out using the same experimental method as described above. For enzyme kinetics, the absorbance of the mixture containing different concentrations of tyrosinase (final concentration: 66.7 U/mL) and compound c27 (0, 2, 3, and 4 μM) was recorded at 475 nm, respectively. For substrate kinetics, the absorbance of the mixture containing different concentrations of L-DOPA (final concentration: 2, 4, 6 and 8 mM) and compound c27 (0, 2, 3 and 4 μM) was recorded at 475 nm, respectively.
Target sequence in this assay (C7FF04 2-392): as above

[3] = molecular target: T1, tyrosinase; assay: Three-dimensional fluorescence spectra of tyrosinase–compound mixture; parameters: species or system mushroom; conditions: 3D fluorescence
Method: The 3D fluorescence spectra of tyrosinase-compound c27 mixture was measured according to previous reports. To 3 mL of tyrosinase solution (final concentration: 168 μM) in PBS, 10 µL of compound c27 (2 mM) was added and incubated for 5 min. Then, the 3D fluorescence spectra analyses were conducted in room temperature. The excitation and emission wavelengths were 200–600 nm and the slit width was 2.5 nm.
Target sequence in this assay (C7FF04 2-392): as above

[4] = molecular target: T1, tyrosinase; assay: Circular dichroism spectra, secondary structure contents of tyrosinase; parameters: purchased Sigma-Aldrich; species or system mushroom
Method: The CD spectra of tyrosinase-compound c27 mixture were measured according to previous reports. To 190 µL of tyrosinase solution (final concentration: 64.65 μM) in PBS, 10 µL of compound c27 (1.28, 2.56, and 3.84 mM) was added and incubated for 5 min. Then, the CD spectra were measured at 195~250 nm at room temperature.
Target sequence in this assay (C7FF04 1-392): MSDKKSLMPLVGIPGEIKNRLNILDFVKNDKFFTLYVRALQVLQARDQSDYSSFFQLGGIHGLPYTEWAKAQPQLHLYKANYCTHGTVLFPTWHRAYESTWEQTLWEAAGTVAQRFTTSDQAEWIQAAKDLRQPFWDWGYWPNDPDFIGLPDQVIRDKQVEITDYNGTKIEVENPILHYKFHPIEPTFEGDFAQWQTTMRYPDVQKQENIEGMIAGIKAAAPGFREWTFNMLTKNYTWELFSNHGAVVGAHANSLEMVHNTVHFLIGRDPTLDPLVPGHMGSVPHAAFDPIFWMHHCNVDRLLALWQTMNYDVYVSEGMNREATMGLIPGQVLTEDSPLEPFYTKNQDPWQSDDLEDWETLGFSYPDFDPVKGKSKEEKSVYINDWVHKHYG

[5] = molecular target: T1, tyrosinase; assay: Fluorescence quenching of tyrosinase (Stern–Volmer); assay type: binding, mushroom; parameters: purchased Sigma-Aldrich
Method: An amount of 1 μL of compound c27 solution was titrated into 2 mL of tyrosinase and incubated for 5 min. […] The quenching mechanism and parameters were investigated by the Stern–Volmer equation.
Target sequence in this assay (C7FF04 1-392 limits assumed): as the sequence (C7FF04 1-392) above

[6] = compound concentration 64 μM, L-DOPA substrate

inhibition at 64 µM [1, 6]: 12 ± 1%
Compound: C=CCc1ccc(OC(=O)C=Cc2ccccc2)c(OC)c1 [c1, 4-allyl-2-methoxyphenyl cinnamate]

inhibition at 64 µM [1, 6]: 12 ± 0.3%
Compound: C=CCc1ccc(OC(=O)/C=C/c2ccccc2C)c(OC)c1 [c2, 4-allyl-2-methoxyphenyl (E)-3-(o-tolyl)acrylate]

inhibition at 64 µM [1, 6]: 39 ± 3%
Compound: C=CCc1ccc(OC(=O)/C=C/c2cccc(C)c2)c(OC)c1 [c3, 4-allyl-2-methoxyphenyl (E)-3-(m-tolyl)acrylate]

inhibition at 64 µM [1, 6]: 15 ± 1%
Compound: C=CCc1ccc(OC(=O)/C=C/c2ccc(C)cc2)c(OC)c1 [c4, 4-allyl-2-methoxyphenyl (E)-3-(p-tolyl)acrylate]

inhibition at 64 µM [1, 6]: 29 ± 3%
Compound: C=CCc1ccc(OC(=O)/C=C/c2ccccc2Cl)c(OC)c1 [c5, 4-allyl-2-methoxyphenyl (E)-3-(2-chlorophenyl)acrylate]

inhibition at 64 µM [1, 6]: 17 ± 2%
Compound: C=CCc1ccc(OC(=O)/C=C/c2cccc(Cl)c2)c(OC)c1 [c6, 4-allyl-2-methoxyphenyl (E)-3-(3-chlorophenyl)acrylate]

Compound: C=CCc1ccc(OC(=O)/C=C/c2ccc(Cl)cc2)c(OC)c1 [c7, 4-allyl-2-methoxyphenyl (E)-3-(4-chlorophenyl)acrylate]
inhibition at 64 µM [1]: 24 ± 1%

inhibition at 64 µM [1, 6]: 17 ± 3%
Compound: C=CCc1ccc(OC(=O)/C=C/c2ccccc2F)c(OC)c1 [c8, 4-allyl-2-methoxyphenyl (E)-3-(2-fluorophenyl)acrylate]

inhibition at 64 µM [1, 6]: 17 ± 3%
Compound: C=CCc1ccc(OC(=O)/C=C/c2cccc(F)c2)c(OC)c1 [c9, 4-allyl-2-methoxyphenyl (E)-3-(3-fluorophenyl)acrylate]

inhibition at 64 µM [1, 6]: 17 ± 1%
Compound: C=CCc1ccc(OC(=O)/C=C/c2ccc(F)cc2)c(OC)c1 [c10, 4-allyl-2-methoxyphenyl (E)-3-(4-fluorophenyl)acrylate]

inhibition at 64 µM [1, 6]: 10 ± 0.4%
Compound: C=CCc1ccc(OC(=O)/C=C/c2ccccc2Br)c(OC)c1 [c11, 4-allyl-2-methoxyphenyl (E)-3-(2-bromophenyl)acrylate]

inhibition at 64 µM [1, 6]: 3 ± 0.8%
Compound: C=CCc1ccc(OC(=O)/C=C/c2cccc(Br)c2)c(OC)c1 [c12, 4-allyl-2-methoxyphenyl (E)-3-(3-bromophenyl)acrylate]

inhibition at 64 µM [1, 6]: 13 ± 1%
Compound: C=CCc1ccc(OC(=O)/C=C/c2ccc(Br)cc2)c(OC)c1 [c13, 4-allyl-2-methoxyphenyl (E)-3-(4-bromophenyl)acrylate]

inhibition at 64 µM [1, 6]: 67.6%
Compound: C=CCc1ccc(OC(=O)/C=C/c2cccc(O)c2)c(OC)c1 [c14, 4-allyl-2-methoxyphenyl (E)-3-(3-hydroxyphenyl)acrylate]

inhibition at 64 µM [1, 6]: 76.1%
Compound: C=CCc1ccc(OC(=O)/C=C/c2ccc(O)cc2)c(OC)c1 [c15, 4-allyl-2-methoxyphenyl (E)-3-(4-hydroxyphenyl)acrylate]

inhibition at 64 µM [1, 6]: 5 ± 0.1%
Compound: C=CCc1ccc(OC(=O)/C=C/c2ccccc2[N+](=O)[O-])c(OC)c1 [c16, 4-allyl-2-methoxyphenyl (E)-3-(2-nitrophenyl)acrylate]

inhibition at 64 µM [1, 6]: 9 ± 0.8%
Compound: C=CCc1ccc(OC(=O)/C=C/c2cccc([N+](=O)[O-])c2)c(OC)c1 [c17, 4-allyl-2-methoxyphenyl (E)-3-(3-nitrophenyl)acrylate]

inhibition at 64 µM [1, 6]: 14 ± 1%
Compound: C=CCc1ccc(OC(=O)/C=C/c2ccc([N+](=O)[O-])cc2)c(OC)c1 [c18, 4-allyl-2-methoxyphenyl (E)-3-(4-nitrophenyl)acrylate]

inhibition at 64 µM [1, 6]: 3 ± 0.2%
Compound: C=CCc1ccc(OC(=O)/C=C/c2ccccc2OC)c(OC)c1 [c19, 4-allyl-2-methoxyphenyl (E)-3-(2-methoxyphenyl)acrylate]

inhibition at 64 µM [1, 6]: 3 ± 0.1%
Compound: C=CCc1ccc(OC(=O)/C=C/c2cccc(OC)c2)c(OC)c1 [c20, 4-allyl-2-methoxyphenyl (E)-3-(3-methoxyphenyl)acrylate]

inhibition at 64 µM [1, 6]: 7 ± 0.9%
Compound: C=CCc1ccc(OC(=O)/C=C/c2ccc(OC)cc2)c(OC)c1 [c21, 4-allyl-2-methoxyphenyl (E)-3-(4-methoxyphenyl)acrylate]

inhibition at 64 µM [1, 6]: 6 ± 0.5%
Compound: C=CCc1ccc(OC(=O)/C=C/c2ccccc2C(F)(F)F)c(OC)c1 [c22, 4-allyl-2-methoxyphenyl (E)-3-(2-(trifluoromethyl)phenyl)acrylate]

inhibition at 64 µM [1, 6]: 5 ± 0.2%
Compound: C=CCc1ccc(OC(=O)/C=C/c2cccc(C(F)(F)F)c2)c(OC)c1 [c23, 4-allyl-2-methoxyphenyl (E)-3-(3-(trifluoromethyl)phenyl)acrylate]

inhibition at 64 µM [1, 6]: 2 ± 0.1%
Compound: C=CCc1ccc(OC(=O)/C=C/c2ccc(C(F)(F)F)cc2)c(OC)c1 [c24, 4-allyl-2-methoxyphenyl (E)-3-(4-(trifluoromethyl)phenyl)acrylate]

inhibition at 64 µM [1, 6]: 26 ± 1%
Compound: C=CCc1ccc(OC(=O)/C=C/c2ccc(N(C)C)cc2)c(OC)c1 [c25, 4-allyl-2-methoxyphenyl (E)-3-(4-(dimethylamino)phenyl)acrylate]

inhibition at 64 µM [1, 6]: 47 ± 1%
Compound: C=CCc1ccc(OC(=O)/C=C/c2ccc(O)c(OC)c2)c(OC)c1 [c26, 4-allyl-2-methoxyphenyl (E)-3-(4-hydroxy-3-methoxyphenyl)acrylate]

Compound: C=CCc1ccc(OC(=O)/C=C/c2ccc(O)c(O)c2)c(OC)c1 [c27, 4-allyl-2-methoxyphenyl (E)-3-(3,4-dihydroxyphenyl)acrylate]
inhibition at 64 µM [1, 6]: 81.5%
inhibition type ([2]; Lineweaver–Burk plots): mixed-type
reversibility of inhibition ([2]; ν versus [E] plots): reversible
reduction of intensity of peak 1 (λex/λem = 280 nm/340 nm) ([3]; Tyr and Trp residues): 21.47%
reduction of intensity of peak 2 (λex/λem = 230 nm/335 nm) ([3]; polypeptide strand transition): 32.71%
Random Coil (%) ([4]; [Tyrosinase]:[c27] 1:1): 28.23%
α-Helix (%) ([4]; [Tyrosinase]:[c27] 1:1): 7.12%
β-Sheet (%) ([4]; [Tyrosinase]:[c27] 1:1): 49.00%
β-Turn (%) ([4]; [Tyrosinase]:[c27] 1:1): 17.63%
Random Coil (%) ([4]; [Tyrosinase]:[c27] 1:2): 28.12%
α-Helix (%) ([4]; [Tyrosinase]:[c27] 1:2): 9.56%
β-Sheet (%) ([4]; [Tyrosinase]:[c27] 1:2): 49.23%
β-Turn (%) ([4]; [Tyrosinase]:[c27] 1:2): 18.37%
Random Coil (%) ([4]; [Tyrosinase]:[c27] 1:3): 27.94%
α-Helix (%) ([4]; [Tyrosinase]:[c27] 1:3): 9.85%
β-Sheet (%) ([4]; [Tyrosinase]:[c27] 1:3): 49.27%
β-Turn (%) ([4]; [Tyrosinase]:[c27] 1:3): 18.55%
number of binding sites (in words) [5]: one
quenching mechanism [5]: static
KSV (Stern–Volmer quenching constant) ([5]; 304 K): 47700 L/mol
Kq (quenching rate constant) ([5]; 304 K): 4.77e+12 L/mol
n (number of binding sites) ([5]; 304 K): 0.59
KSV (Stern–Volmer quenching constant) ([5]; 307 K): 43200 L/mol
Kq (quenching rate constant) ([5]; 307 K): 4.32e+12 L/mol
n (number of binding sites) ([5]; 307 K): 0.86
KSV (Stern–Volmer quenching constant) ([5]; 310 K): 42900 L/mol
Kq (quenching rate constant) ([5]; 310 K): 4.29e+12 L/mol
n (number of binding sites) ([5]; 310 K): 0.99

inhibition at 64 µM [1, 6]: 19 ± 0.2%
Compound: C=CCc1ccc(OC(=O)/C=C/c2ccc(Cl)c(F)c2)c(OC)c1 [c28, 4-allyl-2-methoxyphenyl (E)-3-(4-chloro-3-fluorophenyl)acrylate]

inhibition at 64 µM [1, 6]: 4 ± 1%
Compound: C=CCc1ccc(OC(=O)/C=C/c2ccc3c(c2)OCO3)c(OC)c1 [c29, 4-allyl-2-methoxyphenyl (E)-3-(benzo[d][1,3]dioxol-5-yl)acrylate]
